In patent US20230399312A1, “SUBSTITUTED PYRIMIDINES AND METHODS OF USE” (THERAVANCE BIOPHARMA R&D IP, LLC, priority 2020, published 2023):
pKi: −log10 of the molar value.

Assays:
[1] = molecular target: T1, recombinant human ALK5 (TGF-βR1) protein (Homo sapiens, UniProt P36897); test: Biochemical ALK5 (TGF-βR1) assay to measure pKi (LANCE Ultra ULight kinase assay); details: apparent pKi, converted from pIC50 by Cheng-Prusoff
T1 construct: purchased Life Technologies PR9075A
T1 sequence (P36897 34-503): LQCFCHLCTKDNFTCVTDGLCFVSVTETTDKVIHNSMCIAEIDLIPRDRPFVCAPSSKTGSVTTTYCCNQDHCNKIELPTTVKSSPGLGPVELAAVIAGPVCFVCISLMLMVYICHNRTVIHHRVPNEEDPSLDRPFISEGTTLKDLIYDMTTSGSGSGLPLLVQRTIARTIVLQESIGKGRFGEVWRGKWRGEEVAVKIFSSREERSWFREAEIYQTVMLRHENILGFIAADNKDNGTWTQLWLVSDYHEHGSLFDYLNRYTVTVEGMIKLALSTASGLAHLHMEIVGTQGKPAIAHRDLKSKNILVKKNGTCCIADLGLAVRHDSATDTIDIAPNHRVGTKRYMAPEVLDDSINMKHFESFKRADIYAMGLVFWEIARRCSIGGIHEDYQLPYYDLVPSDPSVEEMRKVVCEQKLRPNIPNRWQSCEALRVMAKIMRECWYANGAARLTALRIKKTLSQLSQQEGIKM
How it was run: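 Read-out was LANCE Ultra TR-FRET with a europium anti-phospho-Topo IIα Thr1342 antibody after EDTA quench. Kinase reaction ran 60 min at 37 °C with ATP added from a 125 μM 5× stock, after 60 min compound–enzyme equilibration at room temperature. Values are pKi from Cheng-Prusoff conversion of fitted pIC50.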

[2] = tested on: TGF-β-stimulated SMAD3 phosphorylation in BEAS-2B cells; test: Cellular ALK5 potency assay, inhibition of TGF-β stimulated pSMAD3 formation in BEAS-2B cells; format: cell-based; details: Homo sapiens, pSMAD3, TGF-β 10 ng/mL, read-out: BEAS2B pIC50 (converted)
How it was run: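 Potency is expressed as pIC50, based on dose-dependent reduction of TGF-β-induced pSMAD3 AlphaLISA signal relative to stimulated cells without compound. BEAS-2B cells received compound 1 h before a 30 min, 10 ng/mL TGF-β challenge.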

| SMILES | pKi [1] | IC50 [2] [nM] |
| --- | --- | --- |
| Cc1cccc(-c2nccc(Nc3ccnc(Nc4ccc(C(=O)O[C@H]5CCN(C)C5)cc4)n3)n2)n1 [Compound 51, [(3S)-1-methylpyrrolidin-3-yl] 4-[[4-[[2-(6-methyl-2-pyridyl)pyrimidin-4-yl]amino]pyrimidin-2-yl]amino]benzoate] | 9.50 to 10.40 | 25.1 to 158 |
| Cc1cccc(-c2nccc(Nc3ccnc(Nc4ccc(C(=O)O[C@@H]5CCN(C)C5)s4)n3)n2)n1 [Compound 52, [(3R)-1-methylpyrrolidin-3-yl] 5-[[4-[[2-(6-methyl-2-pyridyl)pyrimidin-4-yl]amino]pyrimidin-2-yl]amino]thiophene-2-carboxylate] | 9.50 to 10.40 | 25.1 to 158 |
| Cc1cccc(-c2nccc(Nc3ccnc(Nc4cnn(CCN)c4)n3)n2)n1 [Compound 53, N2-[1-(2-aminoethyl)pyrazol-4-yl]-N4-[2-(6-methyl-2-pyridyl)pyrimidin-4-yl]pyrimidine-2,4-diamine] | 9.50 to 10.40 | 200 to 1260 |
| Cc1cccc(-c2nccc(Nc3ccnc(Nc4ccc(OCCO)cc4)n3)n2)n1 [Compound 54, 2-[4-[[4-[[2-(6-methyl-2-pyridyl)pyrimidin-4-yl]amino]pyrimidin-2-yl]amino]phenoxy]ethanol] | 8.50 to 9.40 | 25.1 to 158 |
| Cc1cccc(-c2nccc(Nc3ccnc(Nc4ccc(N5CCCC(C(=O)OC6CCN(C)C6)C5)cc4)n3)n2)n1 (stereo not shown) [Compound 55, (1-methylpyrrolidin-3-yl) 1-[4-[[4-[[2-(6-methyl-2-pyridyl)pyrimidin-4-yl]amino]pyrimidin-2-yl]amino]phenyl]piperidine-3-carboxylate] | 9.50 to 10.40 | 25.1 to 158 |
| Cc1cccc(-c2nccc(Nc3ccnc(Nc4ccc(-c5cnn(C)c5)cc4)n3)n2)n1 [Compound 56, N2-[4-(1-methylpyrazol-4-yl)phenyl]-N4-[2-(6-methyl-2-pyridyl)pyrimidin-4-yl]pyrimidine-2,4-diamine] | 8.50 to 9.40 | 25.1 to 158 |
| Cc1cccc(-c2nccc(Nc3ccnc(Nc4ccc(N5CCNCC5)c(CC(=O)OCC5CNC5)c4)n3)n2)n1 [Compound 57, azetidin-3-ylmethyl 2-[5-[[4-[[2-(6-methyl-2-pyridyl)pyrimidin-4-yl]amino]pyrimidin-2-yl]amino]-2-piperazin-1-yl-phenyl]acetate] | 9.50 to 10.40 | 200 to 1260 |
| Cc1cccc(-c2nccc(Nc3ccnc(Nc4ccc(NC(=O)C5(O)CCNC5)cc4)n3)n2)n1 (stereo not shown) [Compound 58, 3-hydroxy-N-[4-[[4-[[2-(6-methyl-2-pyridyl)pyrimidin-4-yl]amino]pyrimidin-2-yl]amino]phenyl]pyrrolidine-3-carboxamide] | 9.50 to 10.40 | ≤ 20 |
| COC(=O)C1CCN(c2ccc(Nc3nccc(Nc4ccnc(-c5cccc(C)n5)n4)n3)cc2)CC1 [Compound 60, methyl 1-[4-[[4-[[2-(6-methyl-2-pyridyl)pyrimidin-4-yl]amino]pyrimidin-2-yl]amino]phenyl]piperidine-4-carboxylate] | 9.50 to 10.40 | 25.1 to 158 |
| Cc1cccc(-c2nccc(Nc3ccnc(Nc4ccc(C)c(CO)c4)n3)n2)n1 [Compound 61, [2-methyl-5-[[4-[[2-(6-methyl-2-pyridyl)pyrimidin-4-yl]amino]pyrimidin-2-yl]amino]phenyl]methanol] | 9.50 to 10.40 | 25.1 to 158 |
| COC(=O)c1ccc(Nc2nccc(Nc3ccnc(-c4cccc(C)n4)n3)n2)cc1 [Compound 62, methyl 4-[[4-[[2-(6-methyl-2-pyridyl)pyrimidin-4-yl]amino]pyrimidin-2-yl]amino]benzoate] | 8.50 to 9.40 | 25.1 to 158 |
| Cc1cccc(-c2nccc(Nc3ccnc(Nc4ccc(S(=O)(=O)N(C)CCN)cc4)n3)n2)n1 [Compound 63, N-(2-aminoethyl)-N-methyl-4-[[4-[[2-(6-methyl-2-pyridyl)pyrimidin-4-yl]amino]pyrimidin-2-yl]amino]benzenesulfonamide] | 9.50 to 10.40 | 25.1 to 158 |
| COC[C@H]1CN(Cc2ccc(Nc3nccc(Nc4ccnc(-c5cccc(C)n5)n4)n3)cc2)CCN1 [Compound 64, N2-[4-[[(3R)-3-(methoxymethyl)piperazin-1-yl]methyl]phenyl]-N4-[2-(6-methyl-2-pyridyl)pyrimidin-4-yl]pyrimidine-2,4-diamine] | 9.50 to 10.40 | 25.1 to 158 |
| Cc1cccc(-c2nccc(Nc3ccnc(Nc4ccc(NC[C@H]5CCCN5)cc4)n3)n2)n1 [Compound 65, N4-[2-(6-methyl-2-pyridyl)pyrimidin-4-yl]-N2-[4-[[(2R)-pyrrolidin-2-yl]methylamino]phenyl] pyrimidine-2,4-diamine] | 9.50 to 10.40 | 25.1 to 158 |
| Cc1cccc(-c2nccc(Nc3ccnc(Nc4cccc(C(=O)OC5CCNCC5)c4)n3)n2)n1 [Compound 66, 4-piperidyl 3-[[4-[[2-(6-methyl-2-pyridyl)pyrimidin-4-yl]amino]pyrimidin-2-yl]amino]benzoate] | 8.50 to 9.40 | 25.1 to 158 |
| Cc1cccc(-c2nccc(Nc3ccnc(Nc4ccc(CN5CCC[C@H](C(=O)OCC6CNC6)C5)cc4)n3)n2)n1 [Compound 67, azetidin-3-ylmethyl (3S)-1-[[4-[[4-[[2-(6-methyl-2-pyridyl)pyrimidin-4-yl]amino]pyrimidin-2-yl]amino]phenyl]methyl] piperidine-3-carboxylate] | 9.50 to 10.40 | 25.1 to 158 |
| Cc1cccc(-c2nccc(Nc3ccnc(Nc4ccc(CN5CC(C(=O)O[C@@H]6CCN(C)C6)C5)cc4)n3)n2)n1 [Compound 69, [(3R)-1-methylpyrrolidin-3-yl] 1-[[4-[[4-[[2-(6-methyl-2-pyridyl)pyrimidin-4-yl]amino]pyrimidin-2-yl]amino]phenyl]methyl] azetidine-3-carboxylate] | 9.50 to 10.40 | 25.1 to 158 |
| Cc1cccc(-c2nccc(Nc3ccnc(Nc4ccc(S(=O)(=O)NCCN(C)C)cc4)n3)n2)n1 [Compound 70, N-[2-(dimethylamino)ethyl]-4-[[4-[[2-(6-methyl-2-pyridyl)pyrimidin-4-yl]amino]pyrimidin-2-yl]amino]benzenesulfonamide] | 9.50 to 10.40 | 25.1 to 158 |
| Cc1cccc(-c2nccc(Nc3ccnc(Nc4ccc(N5CCC(C(=O)O)CC5)cc4)n3)n2)n1 [Compound 71, 1-[4-[[4-[[2-(6-methyl-2-pyridyl)pyrimidin-4-yl]amino]pyrimidin-2-yl]amino]phenyl]piperidine-4-carboxylic acid] | 9.50 to 10.40 | 25.1 to 158 |
| Cc1cccc(-c2nccc(Nc3ccnc(Nc4cccc(C(=O)N5CCOCC5)c4)n3)n2)n1 [Compound 72, [3-[[4-[[2-(6-methyl-2-pyridyl)pyrimidin-4-yl]amino]pyrimidin-2-yl]amino]phenyl]-morpholino-methanone] | 8.50 to 9.40 | 25.1 to 158 |
| Cc1cccc(-c2nccc(Nc3ccnc(Nc4ccc(CN5CCC[C@H](C(=O)OCC6CN(C)C6)C5)cc4)n3)n2)n1 [Compound 73, (1-methylazetidin-3-yl)methyl (3S)-1-[[4-[[4-[[2-(6-methyl-2-pyridyl)pyrimidin-4-yl]amino]pyrimidin-2-yl]amino]phenyl]methyl] piperidine-3-carboxylate] | 9.50 to 10.40 | 25.1 to 158 |
| Cc1cccc(-c2nccc(Nc3ccnc(Nc4ccc(CN5CC[C@H](O)C5)cc4)n3)n2)n1 [Compound 74, (3S)-1-[[4-[[4-[[2-(6-methyl-2-pyridyl)pyrimidin-4-yl]amino]pyrimidin-2-yl]amino]phenyl]methyl] pyrrolidin-3-ol] | 9.50 to 10.40 | 25.1 to 158 |
| Cc1cccc(-c2nccc(Nc3ccnc(Nc4ccc(CN5C[C@H]6CC[C@@H](C5)N6)cc4)n3)n2)n1 [Compound 75, N4-[2-(6-methyl-2-pyridyl)pyrimidin-4-yl]-N2-[4-[[rac-(1S,5R)-3,8-diazabicyclo[3.2.1]octan-3-yl]methyl]phenyl]pyrimidine-2,4-diamine] | 9.50 to 10.40 | 25.1 to 158 |
| Cc1cccc(-c2nccc(Nc3ccnc(Nc4ccc(NC(=O)C5CNC5)cc4)n3)n2)n1 [Compound 76, N-[4-[[4-[[2-(6-methyl-2-pyridyl)pyrimidin-4-yl]amino]pyrimidin-2-yl]amino]phenyl]azetidine-3-carboxamide] | 9.50 to 10.40 | ≤ 20 |
| Cc1cccc(-c2nccc(Nc3ccnc(Nc4ccc(NC(=O)C5CCN(C6CCOCC6)CC5)cc4)n3)n2)n1 [Compound 77, N-[4-[[4-[[2-(6-methyl-2-pyridyl)pyrimidin-4-yl]amino]pyrimidin-2-yl]amino]phenyl]-1-tetrahydropyran-4-yl-piperidine-4-carboxamide] | 9.50 to 10.40 | 25.1 to 158 |
| Cc1cccc(-c2nccc(Nc3ccnc(Nc4ccc(NC(=O)C5CCNC5)cc4)n3)n2)n1 (stereo not shown) [Compound 78, N-[4-[[4-[[2-(6-methyl-2-pyridyl)pyrimidin-4-yl]amino]pyrimidin-2-yl]amino]phenyl]pyrrolidine-3-carboxamide] | 9.50 to 10.40 | ≤ 20 |
